In patent US20150119394A1, “Insulin-Like Growth Factor-1 Receptor Inhibitors” (Merck Sharp & Dohme Corp., priority 2012, published 2015):

How the values were obtained:
[1] = test system: A673 (Ewing's Sarcoma) cancer cell line; assay: Anti-proliferative assay (MTS / CCK-8); assay type: cell-based; settings: for anti-proliferative activity as compared to compound 999: Ewing's Sarcoma cell line; for IC50: Homo sapiens, A673 (Ewing's Sarcoma), 72 hours, 100 ng/mL IGF, read-out: Anti-proliferation IC50
Experimental: Anti-proliferative potential of compounds was tested using various cell lines (details provided in Table 2) by MTS (Promega, Cat # G1111), a tetrazolium compound ((3-(4,5-dimethylthiazol-2-yl)-5-(3-carboxymethoxyphenyl)-2-(4-sulphophenyl)-2Htetrazolium, inner salt; MTS) and Cell Counting kit-8 (CCK-8 a Dojindo's highly watersoluble tetrazolium salt of WST-8 [2-(2-methoxy-4-nitrophenyl)-3-(4-nitrophenyl)-5-(2,4-disulfophenyl)-2H-tetrazolium, monosodium salt]). MTS is a colorimetric assay for determining the number of viable cells in proliferation, cytotoxicity or chemosensitivity assays. This is used with an electron coupling reagent PMS (Phenazine methosulfate). MTS is bioreduced by cells into a formazan that is soluble in tissue culture medium. The absorbance of the formazan at 490 nm can be measured directly from 96 well assay plates without additional processing. Dehydrogenase enzymes found in metabolically active cells accomplish the conversion of MTS into the aqueous soluble formazan. The quantity of formazan product is directly proportional to the number of living cells in culture. In CCK-8, WST-8 is reduced by dehydrogenases in cells to give a yellow colored product formazan, which is measured at 450 nm.
For experimental purposes, cells were seeded at a density of 3000-5000 cells per well in 180 μL/well volume in transparent 96 well tissue culture plate (NUNC, USA) and incubated overnight at 37° C., 5% CO2. Next day before adding compound the medium was replaced and 180 μL, of fresh medium added with the 100 ng/mL IGF without FCS followed by addition of 20 μL of 10× compound (10 mM stock made in DMSO and then further dilutions were made in medium, final DMSO concentration should not exceed 0.5%) and incubated for 72 hours in humidified 5% CO2 incubator at 37±1° C. After incubation medium was replaced with 200 μL of medium containing 20 μL MTS reagent per well. Plates were incubated for 3-4 hours and absorbance was measured at 490 nm on Spectrophotometer (SpectraMax, Molecular Devices). Percentage cytotoxicity and IC50 was calculated using SoftMax software. CCK-8 was used for suspension cell lines. Cell seeding and compound addition was done on same day. Following the incubation, 10 μL of CCK-8 solution was added in each well. After 4 hour incubation, the absorbance was determined at 450 nm using Spectrophotometer (SpectraMax, Molecular Devices). In every experiment, each condition was run in triplicate wells.

[2] = target: T1, intracellular kinase domain of human IGF-1R (GST fusion protein) (Homo sapiens, UniProt P08069); assay: In vitro IGF-1R kinase assay (HTRF); assay type: biochemical; settings: ATP 20 μM, IGFRK 0.25 nM
T1 construct: IGFRK and IRK enzyme used for the assay was intracellular kinase domain of human IGF-1R; GST; made in house

[3] = Oral absorption in Swiss mice; assay type: in vivo; settings: 10 mg/kg p.o.; for Cmax / half-life / AUC(0-inf): male, mouse, plasma, po; for AUC(0-inf): read-out: AUC0-infinity
Experimental: Oral absorption of different compounds was ascertained in Swiss mice. The procedure followed was as detailed below:
Species: Swiss mice, overnight fasted state
Sex and weight: Male, in the weight range of 25-30 g
Number of animals: 18 animals divided into six groups (n=3) and bled as follows:
Formulation: Compound suspended in 0.5% carboxymethylcellulose or 0.25% methylcellulose
Blood (250 μL) is collected from the retro-orbital sinus at designated time points from each mouse using heparinized bleeding capillaries into micro-centrifuge tubes containing 5 μL EDTA (200 mM) as anticoagulant. Plasma is separated by centrifugation at 10000 rpm for 5 min and samples stored at −70° C. until bioanalysis.
On the day of analysis, plasma samples are thawed at room temperature. An aliquot (100 μL) of each plasma sample is spiked individually with 10 μL of internal standard. The samples are then vortexed for 10 seconds followed by addition of 1 mL of extraction solvent and vortexed for 5 minutes. The samples are then centrifuged at 10000 rpm for 5 minutes at 4° C. Supernatants (800 μL) are removed and transferred to glass tubes and evaporated to dryness under nitrogen. The dried residues are reconstituted using 100 μL of 90:10% v/v acetonitrile:MilliQ water. The reconstituted samples are vortexed, centrifuged and injected into LC-MS/MS for analysis. The calibration curve is prepared in the range of 0.5 to 5000 ng/mL in mouse plasma for quantitation.

CYP2D6 = target: T2, CYP2D6 (Homo sapiens, UniProt P10635); assay: CYP inhibition fluorescence assay (rhCYP450, Vivid Invitrogen kit); assay type: in vitro ADME; settings: for inhibition at 10 uM: human, read-out: % inhibition @ 10 uM 2D6
T2 construct: purchased Invitrogen (Vivid screening kits)
Experimental: (§1) The % inhibition @ 10 uM data was generated from an rhCYP450/fluorescence assay according to the Vivid Invitrogen screening kits. The compounds were screened against 5 CYP450 (1A2, 2C9, 2C19, 2D6, and 3A4) isoforms. CYP3A4 constitutes 28% of the human hepatic CYP and is responsible for metabolism of 50% of all drugs. In this class of drugs, CYP3A4 is the most important CYP and thus it is highly desirable not to inhibit CYP3A4. The lower the percentage inhibition, the lower the CYP450 inhibitory liability of that specific compound.

CYP3A4 = target: T3, CYP3A4 (Homo sapiens, UniProt P08684); assay: as above; assay type: in vitro ADME; settings: for hepatic CYP3A4 inhibition as compared to compound 999: 10 uM; for inhibition at 10 uM: human, read-out: % inhibition @ 10 uM 3A4
T3 construct: purchased Invitrogen (Vivid screening kits)
Experimental: as §1

T1 sequence (P08069 999-1274 limits assumed): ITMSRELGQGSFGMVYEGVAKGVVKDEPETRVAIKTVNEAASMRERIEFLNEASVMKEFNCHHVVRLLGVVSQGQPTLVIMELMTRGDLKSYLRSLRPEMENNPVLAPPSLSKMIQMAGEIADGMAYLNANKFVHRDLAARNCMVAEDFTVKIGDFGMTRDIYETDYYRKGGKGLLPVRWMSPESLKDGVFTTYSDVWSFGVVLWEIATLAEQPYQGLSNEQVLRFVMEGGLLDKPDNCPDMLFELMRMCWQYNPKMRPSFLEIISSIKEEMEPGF
T2 sequence (P10635 whole entry): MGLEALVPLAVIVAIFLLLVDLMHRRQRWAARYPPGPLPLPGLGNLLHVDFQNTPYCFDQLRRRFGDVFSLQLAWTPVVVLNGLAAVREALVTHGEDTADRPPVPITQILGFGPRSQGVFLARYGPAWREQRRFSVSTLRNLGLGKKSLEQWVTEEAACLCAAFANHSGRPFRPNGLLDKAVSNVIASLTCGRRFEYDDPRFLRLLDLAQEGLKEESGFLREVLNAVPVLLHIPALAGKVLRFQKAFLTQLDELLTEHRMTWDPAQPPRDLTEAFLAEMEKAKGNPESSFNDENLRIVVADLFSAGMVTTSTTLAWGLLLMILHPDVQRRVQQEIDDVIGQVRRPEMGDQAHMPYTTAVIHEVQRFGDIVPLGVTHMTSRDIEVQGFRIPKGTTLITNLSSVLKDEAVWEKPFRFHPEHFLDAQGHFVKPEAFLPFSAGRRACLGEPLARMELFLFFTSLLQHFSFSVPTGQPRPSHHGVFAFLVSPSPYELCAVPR
T3 sequence (P08684 whole entry): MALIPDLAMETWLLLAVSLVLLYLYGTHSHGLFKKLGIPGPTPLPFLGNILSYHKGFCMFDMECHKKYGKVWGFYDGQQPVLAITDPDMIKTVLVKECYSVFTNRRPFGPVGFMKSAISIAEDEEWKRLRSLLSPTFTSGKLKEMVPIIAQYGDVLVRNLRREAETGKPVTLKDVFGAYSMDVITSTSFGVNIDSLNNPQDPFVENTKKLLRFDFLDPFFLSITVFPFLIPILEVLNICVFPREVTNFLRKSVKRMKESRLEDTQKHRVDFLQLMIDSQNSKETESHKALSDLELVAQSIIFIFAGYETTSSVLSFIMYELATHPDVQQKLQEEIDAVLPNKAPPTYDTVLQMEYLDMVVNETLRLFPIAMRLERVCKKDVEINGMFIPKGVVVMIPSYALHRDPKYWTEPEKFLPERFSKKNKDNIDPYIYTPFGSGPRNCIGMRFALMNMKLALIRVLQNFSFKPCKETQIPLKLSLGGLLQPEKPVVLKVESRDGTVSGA

SMILES | IC50 [1] [nM] | IC50 [2] [nM] | AUC as compared to compound 999 [3] | Cmax as compared to compound 999 [3] | Cmax [3] [nM] | half-life [3] [h] | AUC(0-inf) [3] [ng·h/mL] | inhibition at 10 uM (CYP2D6) [%] | hepatic CYP3A4 inhibition as compared to compound 999 (CYP3A4) | inhibition at 10 uM (CYP3A4) [%] | hepatic CYP2D6 inhibition as compared to compound 999 (CYP2D6; 10 uM) | anti-proliferative activity as compared to compound 999 [1]
NC(=O)c1[nH]c2ccc(Cl)cc2c1S(=O)(=O)N1CCO[C@H](COc2ccc(-c3ccncc3)cc2)C1 [Compound 32, (S)-5-chloro-3-((2-((4-(pyridin-4-yl)phenoxy)methyl)morpholino)sulfonyl)-1H-indole-2-carboxamide] |  | 3.5 | higher | higher | 2780 | 2.8 | 3190 |  |  |  |  | 
Cc1cc(-c2ccc(OC[C@@H]3CN(S(=O)(=O)c4c(C(N)=O)[nH]c5ccc(Cl)cc45)CCO3)cc2)ccn1 [Compound 51, (S)-5-chloro-3-((2-((4-(2-methylpyridin-4-yl)phenoxy)methyl)morpholino)sulfonyl)-1H-indole-2-carboxamide] | 0.15 | 4.3 | higher | higher | 2550 | 1 | 3250 | 34 | reduced | 13 |  | higher
NC(=O)c1[nH]c2ccc(Cl)cc2c1S(=O)(=O)N1CCO[C@H](COc2ccc(-c3ncccn3)cc2)C1 [Compound 53, (S)-5-chloro-3-((2-((4-(pyrimidin-2-yl)phenoxy)methyl)morpholino)sulfonyl)-1H-indole-2-carboxamide] |  | 6.4 |  |  |  |  |  | 0 |  | 37 | reduced | 
NC(=O)c1[nH]c2ccc(Cl)cc2c1S(=O)(=O)N1CCO[C@H](COc2ccc(-c3ccnc(Cl)c3)cc2)C1 [Compound 84, (S)-5-chloro-3-((2-((4-(2-chloropyridin-4-yl)phenoxy)methyl)morpholino)sulfonyl)-1H-indole-2-carboxamide] |  | 18.5 | higher | higher | 1240 | 1.3 | 2200 |  |  |  |  | 
Cc1cc(OC[C@@H]2CN(S(=O)(=O)c3c(C(N)=O)[nH]c4ccc(Cl)cc34)CCO2)ccc1-c1ccnc(Cl)c1 [Compound 87, (S)-5-chloro-3-((2-((4-(2-chloropyridin-4-yl)-3-methylphenoxy)methyl)morpholino)sulfonyl)-1H-indole-2-carboxamide] |  | 9.3 |  |  |  |  |  | 16 | reduced | 24 |  | 
NC(=O)c1[nH]c2ccc(I)cc2c1S(=O)(=O)N1CCO[C@H](COc2ccccc2)C1 [Compound 999, reference compound] | 3.5 |  |  |  | 1200 | 1.31 | 1050 | 13 |  | 36 |  | 

Continued, in another order:

IC50 [1] [nM] | IC50 [2] [nM] | AUC as compared to compound 999 [3] | Cmax as compared to compound 999 [3] | Cmax [3] [nM] | half-life [3] [h] | AUC(0-inf) [3] [ng·h/mL] | inhibition at 10 uM (CYP2D6) [%] | hepatic CYP3A4 inhibition as compared to compound 999 (CYP3A4) | inhibition at 10 uM (CYP3A4) [%] | hepatic CYP2D6 inhibition as compared to compound 999 (CYP2D6; 10 uM) | SMILES | anti-proliferative activity as compared to compound 999 [1]
1.8 | 33 | higher | higher | 8560 | 5.3 | 10900 |  |  |  |  | NC(=O)c1[nH]c2ccc(Cl)cc2c1S(=O)(=O)N1CCO[C@H](COc2cccc(-c3ccccc3)c2)C1 [Compound 1, (S)-3-((2-(([1,1′-biphenyl]-3-yloxy)methyl)morpholino)sulfonyl)-5-chloro-1H-indole-2-carboxamide] | higher
 | 31.2 | higher | higher | 2980 | 4.6 | 1960 |  |  |  |  | NC(=O)c1[nH]c2ccc(Cl)cc2c1S(=O)(=O)N1CCO[C@H](COc2cccc(-c3cccnc3F)c2)C1 [Compound 3, (S)-5-chloro-3-((2-((3-(2-fluoropyridin-3-yl)phenoxy)methyl)morpholino)sulfonyl)-1H-indole-2-carboxamide] | 
0.6 | 15.1 | higher | higher | 2200 | 0.9 | 1940 |  |  |  |  | COc1ccc(-c2cccc(OC[C@@H]3CN(S(=O)(=O)c4c(C(N)=O)[nH]c5ccc(Cl)cc45)CCO3)c2)cn1 [Compound 7, (S)-5-chloro-3-((2-((3-(6-methoxypyridin-3-yl)phenoxy)methyl)morpholino)sulfonyl)-1H-indole-2-carboxamide] | higher
 | 10 |  |  |  |  |  | 13 | reduced | 2 |  | CCOc1ccc(-c2cccc(OC[C@@H]3CN(S(=O)(=O)c4c(C(N)=O)[nH]c5ccc(Cl)cc45)CCO3)c2)cn1 [Compound 17, (S)-5-chloro-3-((2-((3-(6-ethoxypyridin-3-yl)phenoxy)methyl)morpholino)sulfonyl)-1H-indole-2-carboxamide] | 
 | 140 | higher | higher | 1980 | 2.1 | 4710 | 25 | reduced | 2 |  | Cc1ccc(OC[C@@H]2CN(S(=O)(=O)c3c(C(N)=O)[nH]c4ccc(Cl)cc34)CCO2)cc1-c1ccccc1 [Compound 20, (S)-5-chloro-3-((2-(((6-methyl-[1,1′-biphenyl]-3-yl)oxy)methyl)morpholino)sulfonyl)-1H-indole-2-carboxamide] | 
